Assay results as given in patent US12103939B2, “Solid pharmaceutical gold-based composition” (KING FAHD UNIVERSITY OF PETROLEUM AND MINERALS, priority 2019, dated 2024).

Columns and labels:
lysozyme = target: T1, lysozyme (Gallus gallus, UniProt P00698); assay: Voltammetry, interaction with lysozyme; details: 100 μM complex
T1 construct: purchased Sigma-Aldrich
Procedure: The pH of buffers was monitored on a Accumet XL50 pH meter. A GR-2000 electrical balance was used to weigh the various chemicals. Electrochemical measurements for cyclic voltammetry and square wave voltammetry were performed using Autolab instruments (Metrohm; Netherlands). […] The GCE was polished as a mirror-like surface with alumina slurry on a synthetic cloth before every electrochemical analysis. Square wave voltammetry and cyclic voltammetry were scanned from 0 to 1.3 V for the various analyses. Elemental analyses of gold(III) complexes (C1-C8) were performed on PerkinElmer Series 11 (CHNS/O), Analyzer 2400.
The electrochemical investigation of the interactions between the gold(III) complexes (C1-C8) and lysozyme, tryptophan and guanine was performed using the Autolab instrument described above, with a three-electrode system (CH Instruments): platinum wire counter electrode (CHI115), Ag/AgCl reference electrode (in 3 M KCl, CHI111) and glassy carbon working electrode (CHI112) inserted into a 5.0 ml glass cell. Solutions of 1 mM lysozyme, 5 mM tryptophan and 5 mM guanine were prepared in double distilled water, and the experiment was performed in 0.1 M phosphate buffer at pH 6.8.

[1] = system: cisplatin- and doxorubicin-resistant A2780cis clone; assay: Cytotoxicity assay (MTT, 72 h); assay type: cell-based, human; details: for IC50: A2780cis, MTT after 72 h, mean (SD); for FR (A2780cis/A2780), fold resistance: IC50 A2780cis / IC50 A2780
Procedure: (§1) R-ME-180 and A2780cis cells were maintained in 1 μM cisplatin. Adipose-derived stromal cells were maintained in MSCGM BulletKit medium (Lonza). All cell lines were cultured at 37° C. in a 5% CO2, fully humidified atmosphere
(§2) Cell lines were seeded in 96-well flat-bottomed microplates in 100 μL culture medium at the following densities: DU145, PC3 and MCF-7 cells (2.5×10^3 cells/well); A2780, A2780cis, ME-180, R-ME-180 and A549 cells (4.0×10^3 cells/well); and MG-63 cells (2.0×10^3 cells/well). Cells were allowed to adhere for 24 h. Then the medium was replaced with fresh medium alone or with one of the gold(III) complexes at increasing concentrations from 0 to 100 μM. The reference drugs cisplatin (0-100 μM) and doxorubicin (0-1 μM) were included as positive controls for growth inhibition. After 72 h, cell viability was assayed using the MTT assay.
(§3) See Chou T. C.; Talalay P. Quantitative analysis of dose-effect relationships: the combined effects of multiple drugs or enzyme inhibitors. […] 22, 27-55, incorporated herein by reference in its entirety. IC50 values were reported as mean (SD). For drug-resistance cell lines, fold resistance (FR) was calculated as the ratio of the IC50 of the resistant cell line to the IC50 of the parental cell line.

[2] = system: MG-63 osteosarcoma cell line; assay: Cytotoxicity assay (MTT, 72 h); assay type: cell-based, human; details: MG63, MTT after 72 h, mean (SD); read-out: Half-maximal inhibitory concentration (IC50)
Procedure: as §1, §2, §3

[3] = system: cisplatin-resistant R-ME-180 clone; assay: Cytotoxicity assay (MTT, 72 h); assay type: cell-based, human; details: for FR (R-ME-180/ME-180), fold resistance: IC50 R-ME-180 / IC50 ME-180; for IC50: R-ME-180, MTT after 72 h, mean (SD)
Procedure: as §1, §2, §3

[4] = system: A549 lung cancer cell line; assay: Cytotoxicity assay (MTT, 72 h); assay type: cell-based, human; details: A549, MTT after 72 h, mean (SD); read-out: Half-maximal inhibitory concentration (IC50)
Procedure: as §1, §2, §3

[5] = system: DU145 prostate cancer cell line; assay: Cytotoxicity assay (MTT, 72 h); assay type: cell-based, human; details: DU145, MTT after 72 h, mean (SD); read-out: Half-maximal inhibitory concentration (IC50)
Procedure: as §1, §2, §3

[6] = system: PC3 prostate cancer cell line; assay: Cytotoxicity assay (MTT, 72 h); assay type: cell-based, human; details: PC3, MTT after 72 h, mean (SD); read-out: Half-maximal inhibitory concentration (IC50)
Procedure: as §1, §2, §3

[7] = system: cervical cancer cell line ME-180; assay: Cytotoxicity assay (MTT, 72 h); assay type: cell-based, human; details: ME-180, MTT after 72 h, mean (SD)
Procedure: as §1, §2, §3

[8] = system: MCF-7 breast cancer cell line; assay: Cytotoxicity assay (MTT, 72 h); assay type: cell-based, human; details: MCF-7, MTT after 72 h, mean (SD); read-out: Half-maximal inhibitory concentration (IC50)
Procedure: as §1, §2, §3

[9] = system: ovarian cancer cell line A2780; assay: Cytotoxicity assay (MTT, 72 h); assay type: cell-based, human; details: A2780, MTT after 72 h, mean (SD)
Procedure: as §1, §2, §3

[10] = CV, 0 μM lysozyme, 0.1 M phosphate buffer pH 6.8

T1 sequence (P00698 19-147): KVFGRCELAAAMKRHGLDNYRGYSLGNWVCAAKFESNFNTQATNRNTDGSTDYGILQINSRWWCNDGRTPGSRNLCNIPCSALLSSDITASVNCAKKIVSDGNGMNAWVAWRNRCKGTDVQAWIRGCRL

SMILES | Voltammetry peak potential (lysozyme; [10]) [V] | Voltammetry peak potential (lysozyme; CV, 1 μM lysozyme, pH 6.8) [V] | Voltammetry peak potential (lysozyme; CV, 4 μM lysozyme, pH 6.8) [V] | Voltammetry peak potential (lysozyme; CV, 10 μM lysozyme, pH 6.8) [V] | Voltammetry peak potential (lysozyme; SWV, 0 μM lysozyme, pH 6.8) [V] | Voltammetry peak potential (lysozyme; SWV, 1 μM lysozyme, pH 6.8) [V] | Voltammetry peak potential (lysozyme; SWV, 4 μM lysozyme, pH 6.8) [V] | Voltammetry peak potential (lysozyme; SWV, 10 μM lysozyme, pH 6.8) [V] | IC50 [1] [µM] | FR (A2780cis/A2780), fold resistance [1] | IC50 [2] [µM] | FR (R-ME-180/ME-180), fold resistance [3] | IC50 [3] [µM] | IC50 [4] [µM] | IC50 [5] [µM] | IC50 [6] [µM] | IC50 [7] [µM] | IC50 [8] [µM] | IC50 [9] [µM]
Oc1ccc[n+]2c1-c1c(O)ccc[n+]1[Au-]2([Cl])[Cl].[Cl-] [C1, [Au(BPYH)(Cl)2]Cl] | 0.739 | 0.8142 | 0.8319 | 0.8762 | 0.7934 | 0.8034 | 0.8387 | 0.8639 | 24 | 1.0 | 43 | 1.0 | 72 | > 80 | 39 | 28.3 | 70 | 59 | 23
CN(C)C1=[S+][Au-]2([S]1)[n+]1cccc(O)c1-c1c(O)ccc[n+]12.[Cl-].[Cl-] [C2, [Au(BPYH)(DMDTC)]Cl2] | 0.7921 | 0.8009 | 0.8186 | 0.8319 | 0.7883 | 0.7934 | 0.8085 | 0.8135 | 0.8 | 0.9 | 3.8 | 1.5 | 21 | 6.1 | 2.8 | 1.5 | 14 | 2.3 | 0.9
CCN(CC)C1=[S+][Au-]2([S]1)[n+]1cccc(O)c1-c1c(O)ccc[n+]12.[Cl-].[Cl-] [C3, [Au(BPYH)(DEDTC)]Cl2] | 0.7965 | 0.8098 | 0.8231 | 0.8363 | 0.7934 | 0.8034 | 0.8135 | 0.8236 | 0.4 | 1.1 | 1.2 | 1.3 | 3.8 | 3.8 | 3.5 | 1.3 | – | 1.7 | –
Oc1ccc[n+]2c1-c1c(O)ccc[n+]1[Au-]21[S]C(N(Cc2ccccc2)Cc2ccccc2)=[S+]1.[Cl-].[Cl-] [C4, [Au(BPYH)(DBDTC)]Cl2] | 0.7965 | 0.8098 | 0.8186 | 0.8275 | 0.7883 | 0.7934 | 0.8085 | 0.8135 | 8.2 | 1.1 | 12.3 | 1.0 | 30 | 25 | 6.4 | 8.5 | 30 | 13 | 7.3
